Calls of active or inactive are those of the source. No rule for the calls is given here.
Target: Caspase-6 (Homo sapiens) (UniProt P55212)
Assay: inhibition of CASP6 peptide cleavage – biochemical, VEID-R110 fluorescence, cherry-pick, dose response (AID 720632)
Conditions: caspase-6, VEID-R110 fluorogenic substrate; at 26 µM (top of the series)

Caspase-6 (Homo sapiens), sequence (P55212 24-179 limits assumed): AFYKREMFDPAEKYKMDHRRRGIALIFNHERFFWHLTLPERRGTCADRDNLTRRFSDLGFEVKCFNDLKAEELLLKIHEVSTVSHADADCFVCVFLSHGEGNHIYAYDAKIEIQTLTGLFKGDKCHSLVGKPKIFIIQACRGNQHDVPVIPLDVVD
Caspase-6 (Homo sapiens), sequence (P55212 194-293 limits assumed): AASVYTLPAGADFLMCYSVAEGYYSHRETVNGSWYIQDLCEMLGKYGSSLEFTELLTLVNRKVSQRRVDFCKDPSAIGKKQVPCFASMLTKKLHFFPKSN

SMILES	activity change, negative = inhibition
CO[C@H]1CN(C)C(=O)c2ccc(NC(C)=O)cc2OC[C@H](C)N(C(=O)CC2CC2)C[C@H]1C	inactive
COc1ccccc1CN(C)C(=O)CN1CCN(CC(=O)Nc2ccccc2Cl)CC1	inactive
O=C(NNC(=O)c1ccccc1O)c1ccccc1O	inactive
O=C(O)c1cccc(Nc2ccnc(Nc3cccc(C(=O)O)c3)n2)c1	inactive
CO[C@@H]1CN(C)C(=O)c2ccc(NC(C)=O)cc2OC[C@@H](C)N(C(=O)CC2CC2)C[C@@H]1C	inactive
Cc1ccc(S(=O)(=O)N(CC(=O)Nc2ccccc2C(=O)O)c2cccc(Cl)c2C)cc1	inactive
Cc1ccc(/C(N)=N/OC(=O)c2ccc3ccccc3c2)cc1	inactive
Cc1c(Cl)cccc1NC(=O)Nc1cc(C(C)(C)C)on1	inactive
O=C(Nc1ccccc1)C1CCN(S(=O)(=O)c2ccc3c(c2)OCCO3)CC1	inactive
O=C(Nc1ccc2c(c1)OCO2)C1Cc2c(-c3ccc4c(c3)OCO4)ccnc2O1 (configuration not stated)	inactive
C/C(=N\NC(=O)c1ccccc1O)C1CC1	inactive
COc1cc(CN2CCc3ccccc3C2)cc([N+](=O)[O-])c1O	inactive
CC(C)(C)N(Cc1ccccc1)C(=O)COC(=O)c1ccc([N+](=O)[O-])o1	inactive
CN1C(=O)CCS(=O)(=O)C1c1ccc(Cl)c(Cl)c1 (configuration not stated)	inactive
COc1cc(OC)c(OC)cc1CN1CCSCC1	inactive
CCCNC(=O)[C@@H]1[C@@H](CO)[C@@H]2Cn3c(ccc(-c4ccccc4)c3=O)[C@@H]2N1CC1CC1	inactive
O=C(COC(=O)c1cccc(OC(F)F)c1)Nc1cccc(S(=O)(=O)N2CCCC2)c1	inactive
CN(c1ccccc1)S(=O)(=O)c1cccc(C(=O)OCC(=O)Nc2ccc(C(N)=O)cc2)c1	inactive
O=C(O)c1ccc(N2C(=O)CC(N3CCN(c4cccc(C(F)(F)F)c4)CC3)C2=O)cc1 (configuration not stated)	inactive
COc1ccc2oc(C(=O)N3CCN(c4ncccn4)CC3)c(C)c2c1	inactive
CC1CCCN(CC(O)COC(c2ccccc2)c2ccccc2)C1 (configuration not stated)	inactive

SMILES	activity change, negative = inhibition
COc1cc(-c2nnc(COC(=O)c3ccc([N+](=O)[O-])o3)o2)cc(OC)c1OC	inactive
CN(C)CCNC(=O)c1cccc(S(=O)(=O)Nc2ccccc2F)c1	inactive
COc1ccc(OC)c(S(=O)(=O)NCC(c2cccs2)N2CCc3ccccc3C2)c1 (configuration not stated)	inactive
COc1cc2ccccc2cc1C(=O)N(CCN(C)C)c1nc2c(F)cc(F)cc2s1	inactive
CCCCN(C(=O)c1cccc(-n2cccc2)c1)c1c(N)n(CCCC)c(=O)[nH]c1=O	inactive
CC(C)=NNc1cc([N+](=O)[O-])cc2c1C(=O)N(C)S2=O (configuration not stated)	inactive
CCCC(=O)Nc1ccc2c(c1)OC[C@@H](C)NC[C@H](C)[C@H](OC)CN(C)C2=O	inactive
O=C(C[C@@H]1C=C[C@H](NC(=O)C2CC2)[C@H](CO)O1)Nc1nccs1	inactive
CN1C(=O)CC(Sc2ccccc2C(=O)O)C1=O (configuration not stated)	inactive
COC(=O)C[C@H]1CC[C@@H]2[C@H](COc3ccc(NC(=O)c4cnccn4)cc3C(=O)N2C)O1	inactive
CCOc1ccc(-c2n[nH]c(=S)n2Cc2ccccc2)cc1	inactive
CCC(=O)Nc1ccc2c(c1)OC[C@H](C)N(C(=O)C1CC1)C[C@@H](C)[C@@H](OC)CN(C)C2=O	inactive
CC(OC(=O)c1n[nH]c2ccccc12)C(=O)Nc1ccccc1[N+](=O)[O-] (configuration not stated)	inactive
COc1ccc(NC(=O)C(F)(OC)C(F)(F)F)c(OC)c1 (configuration not stated)	inactive
C#CCNC(=O)C[C@@H]1C[C@@]2(C(=O)OCC)CCC=C2N(Cc2ccc(Cl)cc2Cl)C1=O	inactive
COc1ccccc1NS(=O)(=O)c1cc(C(=O)NC2CCN(Cc3ccccc3)CC2)ccc1C	inactive
CCOC(=O)N1CCN(C(=O)Cc2ccccc2[N+](=O)[O-])CC1	inactive
O=C(NC1CCCCC1)N[C@H]1C=C[C@@H](CC(=O)N2CCOCC2)O[C@@H]1CO	inactive
COc1ccc(O)c(C(c2c(C)[nH][nH]c2=O)c2c(C)[nH][nH]c2=O)c1	inactive
CC(=O)Nc1cccc(NC(=O)c2cc([N+](=O)[O-])ccc2N2CCCCC2)c1	inactive
Cc1ccc(NC(=O)CCC(=O)NNC(=O)COc2ccccc2)c(C)c1	inactive

SMILES	activity change, negative = inhibition
COc1ccc(C=Nc2cccc3ncccc23)cc1	inactive
COc1cc(N)c2ncccc2c1Cl	inactive
O=C(Nc1ccc(C(=O)N2CCCC2)cc1)c1ccc2c(c1)OCO2	inactive
COc1ccccc1-n1c(CNC(=O)c2ccc(S(=O)(=O)N3CCCCC3)cc2)n[nH]c1=S	inactive
O=C(CNC(=O)Cc1ccccc1)NCc1cccs1	inactive
O=C(O)c1ccc(Cn2cc(/C=C\[N+](=O)[O-])c3ccccc32)o1	inactive
O=C(C[C@@H]1C=C[C@@H](NC(=O)c2ccc(F)cc2)[C@@H](CO)O1)NCc1ccncn1	inactive
N#CC1=C(N)Oc2cc(N)ccc2C1c1ccccc1 (configuration not stated)	inactive
COc1ccc(N2CCN(C(=O)CCCn3c(=S)[nH]c4cc5c(cc4c3=O)OCO5)CC2)cc1	inactive
Oc1ccc(Br)cc1CNc1cccc2cccnc12	inactive
Nc1cccnc1Oc1ccc(F)cc1	inactive
O=C(COc1ccc(S(=O)(=O)NC2CCCCC2)cc1Cl)NCc1ccc2c(c1)OCO2	inactive
COc1ccc(N2CCN(C(=O)CCCCCn3c(=S)[nH]c4cc5c(cc4c3=O)OCO5)CC2)cc1	inactive
COc1ccc(S(=O)(=O)n2cnc3ccccc32)cc1OC	inactive
Cc1cc(C)cc(N(CC(=O)NC(C)C)C(=O)CCC(=O)Nc2ccccn2)c1	inactive
CCCN1C[C@@H](C)[C@H](OC)CN(C)C(=O)c2ccc(NC(=O)c3ccccc3)cc2OC[C@@H]1C	inactive
O=C(CCCn1c(=S)[nH]c2cc3c(cc2c1=O)OCO3)N1CCN(c2ccc(Cl)cc2)CC1	inactive
S=c1[nH]cc(-c2ccccc2)n1-c1cccc(Cl)c1	inactive
O=C(CCN1C(=O)NC2(CCCC2)C1=O)Nc1cccc(S(=O)(=O)N2CCOCC2)c1	inactive
O=C([C@@H]1[C@@H](CO)[C@@H]2Cn3c(cccc3=O)[C@@H]2N1Cc1cc(F)ccc1F)N1CCOCC1	inactive

From PubChem BioAssay AID720632 (Broad Institute, 2013)
